These results are taken from PubChem BioAssay (NCI).

Some test systems named below: MDA-MB-468 breast; SNB-19 CNS; MCF7 breast; 786-0 renal; OVCAR-5 ovarian; TK-10 renal; SW-620 colon; NCI-H522 lung; SK-MEL-28 melanoma; HCC-2998 colon; PC-3 prostate; CAKI-1 renal; NCI/ADR-RES ovarian; LOX IMVI melanoma; NCI-H226 lung; HL-60(TB) leukemia; OVCAR-4 ovarian; SF-539 CNS; UACC-257 melanoma; MOLT-4 leukemia; MDA-MB-231 breast; T-47D breast; BT-549 breast; COLO 205 colon; SN12C renal; SK-MEL-5 melanoma; HT29 colon; SNB-75 CNS; KM12 colon; UACC-62 melanoma; SF-268 CNS; HCT-15 colon; U251 CNS; RPMI-8226 leukemia; HCT-116 colon; SR leukemia; MALME-3M melanoma; OVCAR-3 ovarian; UO-31 renal; K-562 leukemia; M14 melanoma; IGROV1 ovarian; NCI-H23 lung; HOP-92 NSCLC; ACHN renal; SK-MEL-2 melanoma; DU-145 prostate; SF-295 CNS; OVCAR-8 ovarian; A549 NSCLC; A498 renal; HS 578T breast; HOP-62 NSCLC; NCI-H460 lung; SK-OV-3 ovarian; MDA-MB-435; CCRF-CEM leukemia; EKVX NSCLC.

Common to all, as to test: DTP human tumour cell line panel, 48 h

SMILES strings stand for the structures.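 Dose response: 5 concentrations. Exposure: 48 h. Format: 96-well plates. Endpoint: linear interpolation; highest concentration if not reached. GI50 marks 50% less growth. TGI: concentration producing complete growth inhibition.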 Where only a bound is given, the exact number is not on record here.

In the case of `COc1ccc(C(=O)c2cc(C)c(OC)c(C)c2)c(OC)c1O`, in the test on MDA-MB-468 breast, the GI50 – broadly, the concentration giving 50% growth inhibition – is 0.489 µM and the TGI – broadly, the concentration giving total growth inhibition – is over 100 µM.
For `CCCC(CCC)NCC(O)c1cc(-c2ccc(C(F)(F)F)cc2)nc(C(F)(F)F)c1` (stereo not given), in the test with MDA-MB-468 breast, the GI50 was 1.58 µM and the TGI was 2.98 µM.
In the case of `CCc1ccccc1-c1nc(CN[C@@H]2C[C@@H]3C[C@H]([C@H]2C)C3(C)C)c(C)o1`, the GI50 was 1.77 µM with SNB-19 CNS; 1.65 µM in the test with MCF7 breast; 1.71 µM in the test on 786-0 renal; 1.59 µM in the test on OVCAR-5 ovarian; 2.01 µM in the test on TK-10 renal; 1.69 µM with SW-620 colon. The GI50 in the test on NCI-H522 lung is 1.61 µM; with SK-MEL-28 melanoma it was 1.72 µM; in the test on HCC-2998 colon it was 1.65 µM; in the test with PC-3 prostate it was 1.8 µM; with CAKI-1 renal, 1.83 µM; in the test on NCI/ADR-RES ovarian, 1.76 µM. Moreover, the GI50 is 1.66 µM in the test with LOX IMVI melanoma; 2.11 µM in the test on NCI-H226 lung; 2.43 µM with HL-60(TB) leukemia; 2.53 µM with OVCAR-4 ovarian; 1.8 µM in the test on SF-539 CNS; 1.66 µM in the test with UACC-257 melanoma. Besides, the GI50 was 2.23 µM in the test with MOLT-4 leukemia; 1.7 µM in the test on MDA-MB-231 breast; 1.73 µM in the test on T-47D breast; 1.71 µM with BT-549 breast; 1.85 µM in the test with COLO 205 colon; 1.68 µM in the test with SN12C renal. The GI50 in the test with SK-MEL-5 melanoma is 1.77 µM; with HT29 colon it was 1.73 µM; with SNB-75 CNS, 12 µM; in the test with KM12 colon, 1.85 µM; in the test with UACC-62 melanoma it was 1.69 µM; in the test with SF-268 CNS it was 2.58 µM. Also, the GI50 in the test with HCT-15 colon is 1.72 µM; in the test on U251 CNS, 1.6 µM; in the test on RPMI-8226 leukemia it was 2.19 µM; in the test with HCT-116 colon, 1.74 µM; in the test on SR leukemia it was 2.11 µM; with MALME-3M melanoma it was 1.49 µM. Also, the GI50 in the test with OVCAR-3 ovarian is 1.61 µM; with UO-31 renal it was 2.13 µM; in the test with K-562 leukemia, 2.34 µM; with M14 melanoma, 1.62 µM; in the test with IGROV1 ovarian it was 1.7 µM; in the test with NCI-H23 lung it was 1.96 µM. The GI50 with HOP-92 NSCLC is 1.37 µM; in the test on ACHN renal, 1.77 µM; in the test on SK-MEL-2 melanoma, 2.55 µM; in the test on DU-145 prostate, 2.03 µM; with SF-295 CNS, 1.72 µM; in the test with OVCAR-8 ovarian, 1.7 µM. The GI50 was 1.88 µM in the test on A549 NSCLC; 1.54 µM in the test with A498 renal; 1.83 µM in the test on HS 578T breast; 1.65 µM in the test on HOP-62 NSCLC; 1.72 µM with NCI-H460 lung; 14.2 µM in the test on SK-OV-3 ovarian. For the same molecule, the GI50 with MDA-MB-435 is 1.67 µM; with CCRF-CEM leukemia, 3.25 µM; in the test on EKVX NSCLC, 2.58 µM; in the test on MDA-MB-468 breast it was 1.5 µM. Moreover, the TGI in the test on SNB-19 CNS is 3.4 µM; in the test on MCF7 breast it was 3.18 µM; in the test on 786-0 renal it was 3.5 µM; in the test with OVCAR-5 ovarian, 3.04 µM; with TK-10 renal it was 5.08 µM; in the test on SW-620 colon it was 3.2 µM. Moreover, the TGI with NCI-H522 lung was found to be 3.22 µM; in the test on SK-MEL-28 melanoma it was 3.11 µM; in the test on HCC-2998 colon, 3.07 µM; in the test on PC-3 prostate, 4.38 µM; with CAKI-1 renal, 3.81 µM; with NCI/ADR-RES ovarian, 3.61 µM. Moreover, the TGI in the test with LOX IMVI melanoma is 3.02 µM; in the test with NCI-H226 lung, 5 µM; in the test with HL-60(TB) leukemia, 6.73 µM; in the test on OVCAR-4 ovarian, 8.36 µM; in the test with SF-539 CNS it was 3.18 µM; in the test with UACC-257 melanoma, 3.23 µM. The TGI in the test on MOLT-4 leukemia came out at 5.72 µM; with MDA-MB-231 breast, 3.12 µM; in the test with T-47D breast, 3.81 µM; with BT-549 breast, 3.17 µM; in the test with COLO 205 colon, 3.95 µM; in the test on SN12C renal, 3.13 µM. Besides, the TGI with SK-MEL-5 melanoma was 3.15 µM; with HT29 colon, 3.4 µM; with SNB-75 CNS, 24.4 µM; in the test on KM12 colon, 3.57 µM; in the test on UACC-62 melanoma, 3.19 µM; in the test on SF-268 CNS, 11 µM. In addition, the TGI turned out to be 3.15 µM in the test on HCT-15 colon; 3.06 µM with U251 CNS; 5.27 µM in the test on RPMI-8226 leukemia; 3.3 µM with HCT-116 colon; 5.33 µM in the test with SR leukemia; 2.84 µM in the test with MALME-3M melanoma. The TGI with OVCAR-3 ovarian was determined as 2.96 µM; in the test on UO-31 renal it was 8.45 µM; in the test with K-562 leukemia, 6.54 µM; in the test with M14 melanoma, 3.12 µM; in the test with IGROV1 ovarian it was 3.26 µM; in the test on NCI-H23 lung, 4.38 µM. The TGI in the test with HOP-92 NSCLC is 2.85 µM; with ACHN renal it was 3.18 µM; in the test on SK-MEL-2 melanoma it was 7.34 µM; in the test with DU-145 prostate it was 4.26 µM; in the test with SF-295 CNS it was 3.17 µM; with OVCAR-8 ovarian, 3.24 µM. The TGI in the test with A549 NSCLC is 4.03 µM; in the test with A498 renal, 2.95 µM; in the test on HS 578T breast, 4.16 µM; in the test with HOP-62 NSCLC, 3.28 µM; in the test with NCI-H460 lung, 3.16 µM; with SK-OV-3 ovarian, 28.9 µM. In addition, the TGI is 3.11 µM in the test with MDA-MB-435, 10.6 µM with CCRF-CEM leukemia, 7.01 µM in the test on EKVX NSCLC and 2.87 µM with MDA-MB-468 breast.
For `CC(C)c1ccc(-c2cc(-c3cn[nH]c3-c3ccccn3)ccn2)cc1`, in the test with MDA-MB-468 breast, the GI50 is 10.5 µM and the TGI came out at 24.7 µM.
The corresponding values for `C=C(C)[C@H]1Cc2c(ccc3c2O[C@@H]2COc4cc(OC)c(OC)cc4[C@@H]2C3=O)O1` are 0.0816 µM and over 100 µM.
In the case of `Cc1cc2ncnn2cc1Nc1ncc2c(n1)n(C1CCOCC1)c(=O)n2C`, in the test with MDA-MB-468 breast, the GI50 is 4.37 µM and the TGI was 44.8 µM.
The corresponding values for `C=C1C(=O)O[C@H]2[C@H]1CC/C(COC(=O)NCCCCNC(=O)OC/C1=C/CC[C@@]3(C)O[C@H]3[C@H]3OC(=O)C(=C)[C@@H]3CC1)=C\CC[C@@]1(C)O[C@@H]21` are 0.426 µM and 2 µM.
As for `O=C(Nc1n[nH]c2cc(-c3ccccc3)ccc12)C1CC1`, in the test on MDA-MB-468 breast, the GI50 was 4 µM and the TGI was over 25 µM.
As to `COc1ccc(C(=O)c2cc(C)c(OC)c(C)c2)cc1OC(=O)CCl`, in the test with MDA-MB-468 breast, the GI50 is 0.0894 µM and the TGI stood at 75.2 µM.
As for `CCc1nc2cc(F)c(/C=C/C(=O)NO)cc2c(=O)n1CCc1ccccc1`, in the test on MDA-MB-468 breast, the GI50 was 0.217 µM and the TGI was found to be 0.761 µM.
Consider `COc1ccc2[nH]c3c4[nH]c5ccc(OC)cc5c4c4c(c3c2c1)C(=O)NC4=O`, for which, in the test on MDA-MB-468 breast, the GI50 is over 25 µM and the concentration for total growth inhibition (TGI) is over 25 µM.
`CCCCC(CC)COC(=O)C[N+](C)(C)CCOC(c1ccccc1)c1ccccc1` (stereo not given): in the test on MDA-MB-468 breast, the GI50 is 1.46 µM and the TGI was 3.12 µM.
For `COC(=O)Nc1nc2ccc(C3(c4ccc(F)cc4)OCCO3)cc2[nH]1`, in the test with MDA-MB-468 breast, the GI50 was 0.159 µM and the TGI came out at 1.19 µM.
